“Also recorded” adds a separate entry of the source.
Key:
[1] = system: human taste cells BR-HTC8; assay: FLIPR fluorescent membrane potential (FMP) imaging assay in BR-HTC8; format: cell-based; settings: BR-HTC8, increasing concentrations in KH-buffer
Description: This cell depolarization was measured by using voltage-sensitive dyes including FLIPR fluorescent membrane potential (FMP) dye (Molecular Devices R8123). Before the assay, cells were maintained in HTC medium for at least 48 hours as described above in Example 1. Cells were then trypsinized with accutase (e.g. PAA, L11-007) or TrypLE (e.g. Gibco, 12563) and seeded into poly-D-lysine coated 96-well assay plates (Corning) at a density of 15,000 cells/well in […].
After 24 hours, medium was removed and the cells are washed once with 100 μl KH buffer (10 mM HEPES pH7.4 containing 118 mM NaCl, 4.7 mM KCl, 4.2 mM NaHCO3, 1.2 mM KH2PO4, 1.2 mM MgSO4, 1.3 mM CaCl2) and then stained with 200 μl KH buffer containing FLIPR FMP dye according instructions of the manufacturer […] and incubation for 2 hours at 37° C. The plates were then transferred into a fluorescence microplate reader to monitor changes in membrane potential-dependent fluorescence (excitation 530 nm, emission 565 nm) after the addition of 50 μl KH-buffer supplemented with the test molecule under investigation. The test molecule was added 16 seconds after starting the scan and baseline recording, mixed twice, and then recording continued for additional 74 seconds. Data points of a total of 35 reads were collected.
Data analysis/Data recording—Changes of the membrane potential was measured as the change of peak fluorescence (ΔF) over the baseline level (F). Data were expressed as the mean S.E. of the ΔF/F value of replicated independent samples. Data analysis was done with software provided by the manufacturer of the microplate reader (Molecular Devices).
(§1) To test, whether stimulation of human taste cells with taste molecules leads to changes in cellular membrane potential the FLIPR fluorescent membrane potential assay was performed as described above. Non-taste cells including HEK293 cells and non-lingual, proliferating primary cells isolated from the oral cavity served as a control and were treated equally throughout the procedure. Changes in membrane potential were recorded on a Molecular Devices Fluorescence microplate reader. Measurement was started by addition of increasing concentrations of the taste molecules in KH-buffer to the cells. KH-buffer served as negative control and KH-buffer containing 4 μM FCCP (e.g. Sigma, C2920) served as a positive control. […] Data were obtained from several independent experiments and performed in triplicates.
as §1, with “This cell depolarization can be measured by using voltage-sensitive dyes including FLIPR fluorescent membrane potential (FMP) dye (Molecular Devices R8123) as described above in Example 6. To” for “To”, “oxytocin” for “taste molecules”, “oxytocin” for “the taste molecules”

[2] = system: Non-taste cells including HEK293 cells, Cal33 cells, and non-lingual, proliferating primary cells isolated from the oral cavity; assay: Fluo-4 fluorescent calcium imaging assay in non-taste control cells; format: cell-based, human
Description: Briefly, human taste cells were seeded in 96-well plates and stained with Fluo4-AM. Non-taste cells including HEK293 cells, Cal33 cells, and non-lingual, proliferating primary cells isolated from the oral cavity served as a control. Changes in Ca^2+-dependent Fluo-4 fluorescence were recorded on a Molecular Devices fluorescence microplate reader. Measurement was started by addition of increasing concentrations of the taste molecules. […] Calcium signals for each test molecule are depicted as relative fluorescence units (RFU).
(§2) To test, whether stimulation of human taste cells with these taste molecules leads to changes in intracellular calcium the Fluo-4 fluorescent calcium imaging assay was performed as described above. Non-taste cells including HEK293 cells and non-lingual, proliferating primary cells isolated from the oral cavity served as a control and were treated equally throughout the procedure. Changes in Ca^2+-dependent Fluo-4 fluorescence were recorded on a Molecular Devices Fluorescence microplate reader. Measurement was started by addition of increasing concentrations of the taste molecules in KH-buffer to the cells. KH-buffer served as negative control and KH-buffer containing 1 μM ionomycin served as a positive control. […] Calcium signals for each test molecule are depicted as Relative Fluorescence Units (RFU), which means that calcium mobilization in response to taste molecules was calculated dF/F0, with dF is (peak fluorescence F1−baseline fluorescence F0). […] Data were obtained from several independent experiments and performed in triplicates.

[3] = system: human taste cells BR-HTC8; assay: Fluo-4 fluorescent calcium imaging assay in BR-HTC8; format: cell-based; for Fluo-4 assay BR-HTC8: key: + indicates that the analysis was successful and that the mRNA was detected by RT-PCR or that stimulation of human taste cells with the respective taste molecule resulted in a dose-dependent increase in intracellular calcium or decrease in cellular membrane potential
Description: Before the assay, cells are maintained in HTC medium for at least 48 hours as described in Example 1. Cells are then trypsinized with accutase (e.g. PAA, L11-007) or TrypLE (e.g. Gibco, 12563) and seeded into poly-D-lysine coated 96-well assay plates (e.g. Corning) at a density of 15,000 cells/well in 100 μl HTC medium.
After 24 hours, the cells (still in 100 μl medium) are stained by addition of 100 μl of Fluo-4 staining solution, which consists of KH buffer (10 mM HEPES pH7.4 containing 118 mM NaCl, 4.7 mM KCl, 4.2 mM NaHCO3, 1.2 mM KH2PO4, 1.2 mM MgSO4, 1.3 mM CaCl2) containing 4 μM Fluo-4 (Molecular Probes) and incubation for 1 hour at 37° C. Final Fluo-4 concentration in the staining solution/medium mixture is 2 μM. Staining solution is then replaced by 80 μl KH-buffer per well and plates are transferred into a fluorescence microplate reader to monitor changes in Ca^2+-dependent fluorescence (excitation 488 nm, emission 530 nm) after the addition of 20 μl KH-buffer supplemented with the test molecule under investigation. The test molecule was added 16 seconds after starting the scan and baseline recording, mixed twice, and then recording continued for additional 44 seconds. Data points of a total of 18 reads were collected. Data analysis/Data recording—Calcium mobilization was measured as the change of peak fluorescence (ΔF) over the baseline level (F). Data were expressed as the mean S.E. of the ΔF/F value of replicated independent samples. Data analysis was done with software provided by the manufacturer of the microplate reader (e.g. Molecular Devices).
as §2
In order to perform to the Fluo-4 fluorescent calcium imaging experiment in the absence of extracellular Ca^2+ the procedure was conducted as described above, however, the KH-buffer was prepared without addition of Ca^2+. Measurement was started by addition of increasing concentrations of the taste molecules in KH-buffer without Ca^2+ to the cells. KH-buffer without Ca^2+ served as negative control and KH-buffer without Ca^2+ containing 1 μM ionomycin served as a positive control.
To test, whether stimulation of human taste cells with oxytocin leads to changes in intracellular calcium the Fluo-4 fluorescent calcium imaging assay was performed as described above in Example 5. Briefly, the human taste cells were seeded in 96-well plates and stained with 2 μM of the calcium-sensitive fluorescence dye Fluo4 in HTC/KH buffer medium for one hour at 37° C. with subsequent replacement of the staining solution with KH-buffer. Non-taste cells including HEK293 cells and non-lingual, proliferating primary cells isolated from the oral cavity served as a control and were treated equally throughout the procedure. Changes in Ca^2+-dependent Fluo-4 fluorescence were recorded on a Molecular Devices Fluorescence microplate reader.

BR-HTC38 cells = assay: Fluo-4 fluorescent calcium imaging assay in TAS2R38-transduced BR-HTC38; format: cell-based, human; settings: BR-HTC38 (TAS2R38 expressed) vs BR-HTC8
Description: Changes in Ca^2+-dependent Fluo-4 fluorescence were recorded on a Molecular Devices fluorescence microplate reader. Measurement was started by addition of increasing concentrations of the taste molecules in KH-buffer to the cells. KH-buffer served as negative control and KH-buffer containing 1 μM ionomycin served as a positive control. […] Calcium signals for each test molecule are depicted as Relative Fluorescence Units (RFU), which means that calcium mobilization in response to taste molecules was calculated dF/F0, with dF is (peak fluorescence F1−baseline fluorescence F0). […] Data were obtained from several independent experiments and performed in triplicates.

Compound: OCc1ccccc1O[C@@H]1O[C@H](CO)[C@@H](O)[C@H](O)[C@H]1O [Salicin]
- change of cellular membrane potential (FLIPR FMP dye fluorescence) on addition of the test molecule [1]: did not elicit significant changes in cellular membrane potential
- increase of Fluo4-fluorescence in control cells [2]: not in control cells
- change of Fluo4-fluorescence / intracellular calcium on addition of the test molecule ([3]; BR-HTC8, increasing concentrations in KH-buffer with Ca2+): dose-dependent increase of Fluo4-fluorescence
- Fluo-4 calcium response in the absence of extracellular Ca2+ ([3]; KH-buffer without Ca2+, BR-HTC8, molecule alone): increase of intracellular calcium; also recorded: dose-dependent increase of Fluo4-fluorescence
- Fluo-4 assay BR-HTC8 ([3]; dose-dependent increase in intracellular calcium on stimulation with the cognate bitter molecule of the TAS2R named in the row): +
- dose-dependent Fluo-4 calcium response in BR-HTC38 compared with parental BR-HTC8 (BR-HTC38 cells): enhanced

From patent US9404080B2, “Human taste cells capable of continuous proliferation” (B.R.A.I.N. BIOTECHNOLOGY RESEARCH AND INFORMATION NETWORK AG, priority 2012, dated 2016)
